In brackets after ≈: the same amount, converted by molar mass.
Experiments:
[1] = Aqueous solubility in distilled–deionized water; format: physicochemical; conditions: for Reduction in solubility: DDW, relative to CDF; for Reduction in solubility / Solubility in DDW: 37°C; for Solubility in DDW: distilled–deionized water, 24 h
Tissue = format: in vitro ADME, rabbit; conditions: relative to parent CDF

Compound	Reduction in solubility [1]	Solubility in DDW [1] [mg/mL]	solubility at 24 h ([1]; distilled-deionized water) [mg/mL]	Fold Increase in retina–choroid partition coefficient (Tissue) [fold]
CCCCCCOP1(=O)COC(Cn2ccc(N)nc2=O)CO1 (stereo not drawn) [C6-cCDF, C6-cyclic Cidofovir]	about 56 fold	1.27 ± 0.48 (≈ 3.68 mM)	–	–
CCCCCCCCCCCCOP1(=O)CO[C@@H](Cn2ccc(N)nc2=O)CO1 (stereo partly drawn) [C12-cCDF, C12-cyclic Cidofovir]	~74 fold	0.95 ± 0.37 (≈ 2.21 mM)	–	–
Nc1ccn(C[C@@H](CO)OCP(=O)(O)O)c(=O)n1 [CDF, Cidofovir, reference compound]	–	–	72.4 ± 3.33 (≈ 259 mM)	1

From article PMC4516231 (Journal of pharmaceutical sciences, 2012)
